The text below walks through data of patent US20090291945A1, “CYSTEINE PROTEASE INHIBITORS” (Teijin Pharma Limited, priority 2008, published 2009).

The target of this assay is T1, cathepsin K (Homo sapiens, UniProt P43235).
T1 construct: the active enzyme was obtained as the enzyme fraction by using detergent containing lysis buffer; made in house; host or cells: HEK293T (GenHunter Corporation), transient expression; detergent lysate used as enzyme fraction
T1 sequence (P43235 115-329): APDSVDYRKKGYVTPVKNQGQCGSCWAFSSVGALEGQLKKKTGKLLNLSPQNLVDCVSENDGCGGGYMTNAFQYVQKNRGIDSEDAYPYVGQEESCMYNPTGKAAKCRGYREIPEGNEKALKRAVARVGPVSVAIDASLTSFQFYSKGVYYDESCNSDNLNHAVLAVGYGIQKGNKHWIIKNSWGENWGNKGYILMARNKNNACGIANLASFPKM
As to the kind of experiment: Cathepsin K inhibitory activity (fluorescent substrate Z-Leu-Arg-MCA). Format: biochemical. The conditions noted are these: enzyme expressed in HEK293T; 15 min preincubation, 30 min reaction at room temperature, pH 5.5; read-out: Activity Intensity (cathepsin K inhibitory activity, pIC50 class) (converted). The protocol:
Cathepsin K inhibitory activities of the compounds synthesized according to the methods of the above examples were measured.
Cathepsin K used for evaluation of inhibitory activity was transiently expressed in an animal cell HEK293T (made by GenHunter Corporation) and the active enzyme was obtained as the enzyme fraction by using detergent containing lysis buffer.
The enzyme solution A was prepared at 2.1 times final concentration by diluting the enzyme fraction with assay buffer (50 mM sodium acetate, 50 mM sodium chloride, 2 mM DTT, pH 5.5). The test compound solutions B were prepared at 50 times final target concentrations by dimethylsulfoxide (DMSO). As a substrate solution C, a solution of a fluorescent substrate, benzyloxycarbonyl-L-leucyl-L-arginyl-4-methyl-coumaryl-7-amide (Z-Leu-Arg-MCA (Peptide Institute Inc.), was prepared at 10 μM by an assay buffer.
To the enzyme solution A (38.4 μL) were added the test compound solutions B (1.6 μL) and mixed individually. The mixtures were incubated at room temperature for 15 minutes. To the incubated solutions were added the substrate solution C (40 μL) and the mixtures were reacted at room temperature for 30 minutes respectively. The fluorescence intensities of the enzyme reaction solutions were measured at excitation wavelength of 355 nm and measurement wavelength of 460 nm and the enzyme activities were calculated from these fluorescence intensities caused by 7-amino-4-methylcoumarine released. The enzyme activity with using DMSO instead of the test compound solution B was taken as 100% and the inhibitory rates at each concentration of the test compound were calculated. The […] response curve was fitted to the plots. The 50% inhibitory concentration against cathepsin K was calculated from this curve.
Note that the symbols (+, ++, and +++) in this table represent the inhibitory activity values as below. Here, pIC50 is the value representing a negative logarithm of IC50, (−log10(IC50)). IC50 is a 50% inhibitory concentration.

In the case of `CC[C@@H](CNc1ccc(N2CCSCC2)cc1)NC(=O)[C@H](CC(C)(C)F)N[C@@H](c1ccc(Br)cc1)C(F)(F)F` [Compound 18], the IC50 is no more than 3.16 nM.
The result for `CC[C@@H](CNc1ccc(OCCS(C)(=O)=O)cc1OC)NC(=O)[C@H](CC(C)C)N[C@@H](c1ccc(=O)[nH]c1)C(F)(F)F` [Compound 41] reads no more than 3.16 nM; that for `CC[C@@H](CNc1ccc(N2CCCC2=O)cc1)NC(=O)[C@H](CC(C)C)N[C@@H](c1ccccc1)C(F)(F)F` [Compound 53], 3.16 to 31.6 nM.
The result for `CC(C)C[C@H](N[C@@H](c1ccccc1)C(F)(F)F)C(=O)N[C@H](CNc1ccc(N2CCOCC2)cc1)CN(C)C` [Compound 106] reads no more than 3.16 nM.
Regarding `CCOC(=O)c1ccnn1-c1ccc(NC[C@H](CC)NC(=O)[C@H](CC(C)C)N[C@@H](c2ccc(OC)nc2)C(F)(F)F)cc1` [Compound 115], the IC50 was 31.6 to 10000 nM.
The result for `CC[C@@H](CNc1ccc(OCC(=O)N2CCCC2)cc1OC)NC(=O)[C@H](CC(C)(C)F)N[C@@H](c1ccccc1)C(F)(F)F` [Compound 135] reads no more than 3.16 nM; that for `CC[C@@H](CNc1ccc(N2CCSCC2)cc1OC)NC(=O)[C@H](CC(C)(C)F)N[C@@H](c1ccc(Br)cc1)C(F)(F)F` [Compound 17], no more than 3.16 nM; that for `CC[C@@H](CNc1ccc(OCC(F)(F)C(F)F)cc1OC)NC(=O)[C@H](CC(C)(C)F)N[C@@H](c1ccccc1)C(F)(F)F` [Compound 22], 3.16 to 31.6 nM.
The result for `CC(C)C[C@H](N[C@@H](c1ccccc1)C(F)(F)F)C(=O)N[C@@H](CCOCc1ccccc1)CNc1ccc(N2CCOCC2)cc1` [Compound 87] reads no more than 3.16 nM; that for `CC[C@@H](CNc1ccc(OC)nc1OC)NC(=O)[C@H](CC(C)(C)F)N[C@@H](c1ccc(Br)cc1)C(F)(F)F` [Compound 19], 3.16 to 31.6 nM; that for `COc1ccc(NC[C@H](CCSC)NC(=O)[C@H](CC(C)C)N[C@@H](c2ccccc2)C(F)(F)F)c(OC)c1` [Compound 66], 3.16 to 31.6 nM.
On to `CC[C@@H](CNc1ccc(OC)cc1OC)NC(=O)[C@H](Cc1ccccc1)N[C@@H](c1ccccc1)C(F)(F)F` [Compound 57], for which the IC50 was 31.6 to 10000 nM.
Turning to `CC[C@@H](CNc1ccc(OC)cc1OC)NC(=O)C1(NC(c2ccccc2)C(F)(F)F)CCCCC1` (stereo partly drawn) [Compound 8, N-((1S)-1-{[(2,4-dimethoxyphenyl)amino]methyl}propyl){[(2,2,2-trifluoro-1-phenylethyl)amino]cyclohexyl}carboxamide], the IC50 is 3.16 to 31.6 nM.
Consider `CC[C@@H](CNc1ccc(N2CCOCC2)cc1)NC(=O)[C@H](CC(C)C)N[C@@H](c1ccccn1)C(F)(F)F` [Compound 32], for which the IC50 was no more than 3.16 nM.
The result for `CC[C@@H](CNc1ccc(OC)cc1OC)NC(=O)[C@@H](N[C@@H](c1ccccc1)C(F)(F)F)C1CCCCC1` [Compound 61] reads 31.6 to 10000 nM; that for `CC[C@@H](CNc1ccc(-n2nccc2C(=O)O)cc1)NC(=O)[C@H](CC(C)C)N[C@@H](c1ccc(OC)nc1)C(F)(F)F` [Compound 144], 31.6 to 10000 nM.
`CC[C@@H](CNc1ccc(N2CCC(C(=O)O)CC2)cc1)NC(=O)[C@H](CC(C)C)N[C@@H](c1ccc(OC)nc1)C(F)(F)F` [Compound 146]: the IC50 was no more than 3.16 nM.
With `CCOC(=O)C1CCN(c2ccc(NC[C@H](CC)NC(=O)[C@H](CC(C)(C)F)N[C@@H](c3ccccc3)C(F)(F)F)cc2)CC1` [Compound 55] the figure was no more than 3.16 nM.
The result for `CC[C@@H](CNc1ccc(OCC(=O)N(C)C)cc1OC)NC(=O)[C@H](CC(C)(C)F)N[C@@H](c1ccccc1)C(F)(F)F` [Compound 134] reads no more than 3.16 nM.
For `COc1ccc([C@H](N[C@@H](CC(C)C)C(=O)N[C@H](CNc2ccc(OC)cc2OC)CC(C)C)C(F)(F)F)cc1` [Compound 65], the IC50 is no more than 3.16 nM.
The result for `CC[C@@H](CNc1ccc(N2CCOCC2)cc1)NC(=O)[C@H](CC(C)C)N[C@@H](c1ccc(OC)nc1)C(F)(F)F` [Compound 26] reads no more than 3.16 nM; that for `CC(C)C[C@H](N[C@@H](c1ccccc1)C(F)(F)F)C(=O)N[C@@H](CCCNC(=O)OCc1ccccc1)CNc1ccc(N2CCOCC2)cc1` [Compound 103], no more than 3.16 nM.
In the case of `CC[C@@H](CNc1ccc(N2CCOCC2)cc1)NC(=O)[C@H](CC(C)C)N[C@@H](c1cccnc1)C(F)(F)F` [Compound 27], the IC50 was no more than 3.16 nM.
With `COc1ccc(NC[C@H](C)NC(=O)C2(NC(c3ccccc3)C(F)(F)F)CCCCC2)c(OC)c1` (stereo partly drawn) [Compound 110], the IC50 was 31.6 to 10000 nM.
The result for `CC[C@@H](CNc1ccc(N2CCOCC2)cc1)NC(=O)[C@H](CC(C)C)N[C@@H](c1ccc(OC(F)F)cc1)C(F)(F)F` [Compound 33] reads no more than 3.16 nM.
With `CC[C@@H](CNc1ccc(OC)cc1)NC(=O)[C@H](CC(C)(C)F)N[C@@H](c1ccc(-c2ccc(S(C)(=O)=O)cc2)cc1)C(F)(F)F` [Compound 1, (2S)—N-((1S)-1-{[(4-methoxyphenyl)amino]methyl}propyl)-2-[((1S)-2,2,2-trifluoro-1-{4-[4-(methylsulfonyl)phenyl]phenyl}ethyl)amino]-4-fluoro-4-methylpentanamide], the IC50 was 3.16 to 31.6 nM.
On to `COc1ccc(NC[C@H](C)NC(=O)[C@H](CC(C)C)N[C@@H](c2cccnc2)C(F)(F)F)c(OC)c1` [Compound 78], for which the IC50 was 3.16 to 31.6 nM.
For `CCOc1ccc(NC[C@H](CC)NC(=O)[C@H](CC(C)(C)F)N[C@@H](c2ccc(-c3ccc(S(C)(=O)=O)cc3)cc2)C(F)(F)F)cc1OCC` [Compound 4, (2S)—N-((1S)-1-{[(3,4-diethoxyphenyl)amino]methyl}propyl)-2-[((1S)-2,2,2-trifluoro-1-{4-[4-(methylsulfonyl)phenyl]phenyl}ethyl)amino]-4-fluoro-4-methylpentanamide], the IC50 was no more than 3.16 nM.
With `COc1ccc([C@H](N[C@@H](CC(C)C)C(=O)N[C@@H](C)CNc2ccc(N3CCOCC3)cc2)C(F)(F)F)cn1` [Compound 75] the figure was no more than 3.16 nM; with `CC[C@@H](CNc1ccc(OC)cc1OC)NC(=O)[C@H](CC(C)C)N[C@@H](c1ccc(OC)nc1)C(F)(F)F` [Compound 25], 3.16 to 31.6 nM.
The result for `CC[C@@H](CNc1ccc(N2CCOCC2)cc1)NC(=O)[C@H](CC(C)C)N[C@@H](Cc1ccccc1)C(F)(F)F` [Compound 37] reads no more than 3.16 nM.
The result for `CC(C)C[C@H](N[C@@H](c1ccccc1)C(F)(F)F)C(=O)N[C@H](CNc1ccc(N2CCOCC2)cc1)CC(=O)OCc1ccccc1` [Compound 69] reads no more than 3.16 nM; that for `CC[C@@H](CNc1ccc(OCCSC)cc1OC)NC(=O)[C@H](CC(C)(C)F)N[C@@H](c1ccc(Br)cc1)C(F)(F)F` [Compound 16, (2S)-2-{[(1S)-1-(4-bromophenyl)-2,2,2-trifluoroethyl]amino}-N-[(1S)-1-({[2-methoxy-4-(2-methylthioethoxy)phenyl]amino}methyl)propyl]-4-fluoro-4-methylpentanamide], no more than 3.16 nM; that for `CC[C@@H](CNc1ccc(OC(C)(C)C(=O)O)cc1OC)NC(=O)[C@H](CC(C)(C)F)N[C@@H](Cc1ccccc1)C(F)(F)F` [Compound 132, 2-(4-{[(2S)-2-((2S)-2-{[(1S)-2,2,2-trifluoro-1-benzylethyl]amino}-4-fluoro-4-methylpentanoylamino)butyl]amino}-3-methoxyphenoxy)-2-methylpropanoic acid], 3.16 to 31.6 nM.
In the case of `CC(C)C[C@H](N[C@@H](c1ccccc1)C(F)(F)F)C(=O)N[C@@H](CCC(=O)OCc1ccccc1)CNc1ccc(N2CCOCC2)cc1` [Compound 68], the IC50 was no more than 3.16 nM.
On to `CC[C@@H](CNc1ccccc1N1CCOCC1)NC(=O)[C@H](CC(C)C)N[C@@H](c1ccccc1)C(F)(F)F` [Compound 88], for which the IC50 was 31.6 to 10000 nM.
As for `CC[C@@H](CNc1ccc(OCC(=O)N2CCOCC2)cc1OC)NC(=O)[C@H](CC(C)(C)F)N[C@@H](c1ccccc1)C(F)(F)F` [Compound 136], the IC50 is no more than 3.16 nM.
With `CC[C@@H](CNc1ccc(OCC(=O)O)cc1OC)NC(=O)[C@H](CC(C)C)N[C@@H](c1ccccc1)C(F)(F)F` [Compound 119] the figure was no more than 3.16 nM.
With `CC[C@@H](CNc1ccc(OCC(N)=O)cc1OC)NC(=O)[C@H](CC(C)(C)F)N[C@@H](c1ccccc1)C(F)(F)F` [Compound 133, (2S)—N-[(1S)-1-({[4-(carbamoylmethoxy)-2-methoxyphenyl]amino}methyl)propyl]-2-[((1S)-2,2,2-trifluoro-1-phenylethyl)amino]-4-fluoro-4-methylpentanamide] the figure was no more than 3.16 nM.
